The results in this text go back to patent publication US20160287589A1, “SUBSTITUTED-IMIDAZOPYRIDAZINES” (BAYER PHARMA AKTIENGESELLSCHAFT, priority 2013, published 2016).

Broadly, the IC50 is the midpoint of a concentration-inhibition curve. Low readings indicate inhibition by little substance, high ones a need for much substance.

SMILES strings stand for the structures.

Test [1] addresses T1, MKNK1 (Homo sapiens, UniProt Q9BUB5, T385D).
T1 construct: GST (N); purchased Carna Biosciences 02-145; host or cells: insect cells (baculovirus expression system)
As to the kind of experiment: MKNK1 kinase high ATP assay (TR-FRET-based). As to conditions: Table 2a; 2 mM ATP, 15 min preincubation. The format is biochemical. In a few lines: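 TR-FRET read-out (anti-phospho-S6 Ser236 antibody, Eu/XL665) of biotin-peptide phosphorylation (0.06 μM) at high ATP (2 mM final). Enzyme was GST-MKNK1 full length, T344D, pre-bound to compound for 15 min before a 30 min reaction at 22 °C, pH 7.5. Inhibition scaled between no-inhibitor (0%) and no-enzyme (100%) wells.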
On the technique in general: TR-FRET usually uses a lanthanide donor and a delayed reading to cut background.

Test [2] deals with T1, MKNK1. The test is described as follows: MKNK1 kinase assay (MKNK1 TR-FRET assay). The format is biochemical. As to conditions: Table 1a; 10 μM ATP, 15 min preincubation. An excerpt:
MKNK1-inhibitory activity of compounds of the present invention was quantified employing the MKNK1 TR-FRET assay as described in the following paragraphs.
A recombinant fusion protein of Glutathione-S-Transferase (GST, N-terminally) and human full-lengt MKNK1 (amino acids 1-424 and T344D of accession number BAA 19885.1), expressed in insect cells using baculovirus expression system and purified via glutathione sepharose affinity chromatography, was purchased from Carna Biosciences (product no 02-145) and used as enzyme. As substrate for the kinase reaction the biotinylated peptide biotin-Ahx-IKKRKLTRRKSLKG (C-terminus in amide form) was used which can be purchased e.g. form the company Biosyntan (Berlin-Buch, Germany).
For the assay 50 nL of a 100 fold concentrated solution of the test compound in DMSO was pipetted into a black low volume 384 well microtiter plate (Greiner Bio-One, Frickenhausen, Germany), 2 μL of a solution of MKNK1 in aqueous assay buffer [50 mM HEPES pH 7.5, 5 mM magnesium chloride, 1.0 mM dithiothreitol, 0.005% (v/v) Nonidet-P40 (Sigma)] was added and the mixture was incubated for 15 min at 22° C. to allow pre-binding of the test compounds to the enzyme before the start of the kinase reaction. […] The concentration of MKNK1 was adjusted depending of the activity of the enzyme lot and was chosen appropriate to have the assay in the linear range, typical concentrations were in the range of […]. The reaction was stopped by the addition of 5 μL of a solution of TR-FRET detection reagents (5 nM streptavidine-XL665 [Cisbio Bioassays, Codolet, France] and 1 nM anti-ribosomal protein S6 (pSer236)-antibody from Invitrogen [#44921G] and 1 nM LANCE EU-W1024 labeled ProteinG [Perkin-Elmer, product no. AD0071]) in an aqueous EDTA-solution (100 mM EDTA, 0.1% (w/v) bovine serum albumin in 50 mM HEPES pH 7.5).
The resulting mixture was incubated for 1 h at 22° C. to allow the formation of complex between the phosphorylated biotinylated peptide and the detection reagents. Subsequently the amount of phosphorylated substrate was evaluated by measurement of the resonance energy transfer from the Eu-chelate to the streptavidine-XL. Therefore, the fluorescence emissions at 620 nm and 665 nm after excitation at 350 nm were measured in a TR-FRET reader, e.g. a Rubystar (BMG Labtechnologies, Offenburg, Germany) or a Viewlux (Perkin-Elmer). The ratio of the emissions at 665 nm and at […] was taken as the measure for the amount of phosphorylated substrate. The data were normalised (enzyme reaction without inhibitor=0% inhibition, all other assay components but no enzyme=100% inhibition).

T1 sequence (Q9BUB5 1-424 isoform Q9BUB5-2 T344D): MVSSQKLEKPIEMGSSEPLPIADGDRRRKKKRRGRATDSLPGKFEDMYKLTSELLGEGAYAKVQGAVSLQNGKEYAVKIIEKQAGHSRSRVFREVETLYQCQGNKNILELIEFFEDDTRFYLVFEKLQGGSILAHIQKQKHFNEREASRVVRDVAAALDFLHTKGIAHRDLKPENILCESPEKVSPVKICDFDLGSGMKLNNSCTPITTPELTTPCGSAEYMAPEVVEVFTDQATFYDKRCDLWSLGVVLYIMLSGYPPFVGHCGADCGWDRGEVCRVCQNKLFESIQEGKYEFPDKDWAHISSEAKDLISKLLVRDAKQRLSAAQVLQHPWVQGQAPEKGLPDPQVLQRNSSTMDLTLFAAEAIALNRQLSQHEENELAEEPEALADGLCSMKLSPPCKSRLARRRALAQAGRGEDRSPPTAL

For the compound `O=C1CNC[C@H](COc2ccc3ncc(-c4cc5ccccc5o4)n3n2)N1` [Example I-42, (6R)-6-({[3-(1-Benzofuran-2-yl)imidazo[1,2-b]pyridazin-6yl]oxy}methyl)-piperazin-2-one], the IC50 on MKNK1 [1] was found to be 26.8 nM; on MKNK1 [2], 14.2 nM.
As for `O=C(c1cccs1)N1CCC[C@H]1CCOc1ccc2ncc(-c3cc4ccccc4o3)n2n1` [Example I-43, [(2S)-2-(2-{[3-(1-Benzofuran-2-yl)imidazo[1,2-b]pyridazin-6-yl]oxy}ethyl)pyrrolidin-1-yl](thiophen-2-yl)methanone], the IC50 on MKNK1 [1] turned out to be 1.3 nM; at MKNK1 [2], 1 nM.
For the compound `CCC(=O)N1CCC[C@H]1CCOc1ccc2ncc(-c3cc4ccccc4o3)n2n1` [Example I-44, 1-[(2S)-2-(2-{[3-(1-Benzofuran-2-yl)imidazo[1,2-b]-pyridazin-6-yl]oxy}ethyl)pyrrolidin-1-yl]propan-1-one], the results for the IC50 on MKNK1 [1] and against MKNK1 [2] were 1.7 nM and 1.1 nM, respectively.
On to `O=C(c1cnoc1)N1CCC[C@H]1CCOc1ccc2ncc(-c3cc4ccccc4o3)n2n1` [Example I-45, [(2S)-2-(2-{[3-(1-Benzofuran-2-yl)imidazo[1,2-b]-pyridazin-6-yl]oxy}ethyl)pyrrolidin-1-yl](1,2-oxazol-4-yl)methanone], for which the IC50 was determined as 1.8 nM against MKNK1 [1] and 1.3 nM at MKNK1 [2].
Regarding `CC(C)(C)C(=O)N1CCC[C@H]1CCOc1ccc2ncc(-c3cc4ccccc4o3)n2n1` [Example I-46, 1-[(2S)-2-(2-{[3-(1-Benzofuran-2-yl)imidazo[1,2-b]-pyridazin-6-yl]oxy}ethyl)pyrrolidin-1-yl]-2,2-dimethylpropan-1-one], the figures for the IC50 against MKNK1 [1] and against MKNK1 [2] were 1.9 nM and 1.2 nM, respectively.
Regarding `O=C(c1ccno1)N1CCC[C@H]1CCOc1ccc2ncc(-c3cc4ccccc4o3)n2n1` [Example I-47, [(2S)-2-(2-{[3-(1-Benzofuran-2-yl)imidazo[1,2-b]-pyridazin-6-yl]oxy}ethyl)pyrrolidin-1-yl](1,2-oxazol-5-yl)methanone], the values for the IC50 against MKNK1 [1] and against MKNK1 [2] were 2.2 nM and 1.6 nM, respectively.
With `Cn1cc(C(=O)N2CCC[C@H]2CCOc2ccc3ncc(-c4cc5ccccc5o4)n3n2)cn1` [Example I-48, [(2S)-2-(2-{[3-(1-Benzofuran-2-yl)imidazo[1,2-b]-pyridazin-6-yl]oxy}ethyl)pyrrolidin-1-yl](1-methyl-1H-pyrazol-4-yl)methanone], the results for the 50% inhibitory concentration (IC50) against MKNK1 [1] and against MKNK1 [2] were 2.3 nM and 1.8 nM, respectively.
`O=C(c1ccco1)N1CCC[C@H]1CCOc1ccc2ncc(-c3cc4ccccc4o3)n2n1` [Example I-49, [(2S)-2-(2-{[3-(1-Benzofuran-2-yl)imidazo[1,2-b]-pyridazin-6-yl]oxy}ethyl)pyrrolidin-1-yl](furan-2-yl)methanone]: the IC50 at MKNK1 [1] worked out at 2.4 nM; against MKNK1 [2], 1.1 nM.
For the compound `Cn1ccc(C(=O)N2CCC[C@H]2CCOc2ccc3ncc(-c4cc5ccccc5o4)n3n2)n1` [Example I-50, [(2S)-2-(2-{[3-(1-Benzofuran-2-yl)imidazo[1,2-b]-pyridazin-6-yl]oxy}ethyl)pyrrolidin-1-yl](1-methyl-1H-pyrazol-3-yl)methanone], the 50% inhibitory concentration (IC50) at MKNK1 [1] is 3.2 nM; against MKNK1 [2] it was 2.4 nM.
Consider `O=C(CC1CC1)N1CCC[C@H]1CCOc1ccc2ncc(-c3cc4ccccc4o3)n2n1` [Example I-51, 1-[(2S)-2-(2-{[3-(1-Benzofuran-2-yl)imidazo[1,2-b]-pyridazin-6-yl]oxy}ethyl)pyrrolidin-1-yl]-2-cyclopropylethanone], for which the IC50 on MKNK1 [1] came to 3.2 nM; against MKNK1 [2], 2.1 nM.
In the case of `Cc1nocc1C(=O)N1CCC[C@H]1CCOc1ccc2ncc(-c3cc4ccccc4o3)n2n1` [Example I-52, [(2S)-2-(2-{[3-(1-Benzofuran-2-yl)imidazo[1,2-b]-pyridazin-6-yl]oxy}ethyl)pyrrolidin-1-yl](3-methyl-1,2-oxazol-4-yl)methanone], the IC50 came out at 3.4 nM on MKNK1 [1] and 1.7 nM at MKNK1 [2].
On to `O=C(C1CCCO1)N1CCC[C@H]1CCOc1ccc2ncc(-c3cc4ccccc4o3)n2n1` (stereo partly drawn) [Example I-53, [(2S)-2-(2-{[3-(1-Benzofuran-2-yl)imidazo[1,2-b]-pyridazin-6-yl]oxy}ethyl)pyrrolidin-1-yl](tetrahydrofuran-2-yl)methanone], for which the IC50 against MKNK1 [1] came to 3.5 nM; against MKNK1 [2], 2.4 nM.
As for `O=C(C1CCC1)N1CCC[C@H]1CCOc1ccc2ncc(-c3cc4ccccc4o3)n2n1` [Example I-54, [(2S)-2-(2-{[3-(1-Benzofuran-2-yl)imidazo[1,2-b]-pyridazin-6-yl]oxy}ethyl)pyrrolidin-1-yl](cyclobutyl)methanone], the IC50 against MKNK1 [1] is 3.7 nM; against MKNK1 [2], 2 nM.
On to `O=C(c1ccon1)N1CCC[C@H]1CCOc1ccc2ncc(-c3cc4ccccc4o3)n2n1` [Example I-55, [(2S)-2-(2-{[3-(1-Benzofuran-2-yl)imidazo[1,2-b]-pyridazin-6-yl]oxy}ethyl)pyrrolidin-1-yl](1,2-oxazol-3-yl)methanone], for which the results for the IC50 on MKNK1 [1] and on MKNK1 [2] were 3.8 nM and 2.1 nM, respectively.
The corresponding values for `O=C(C1CCCC1)N1CCC[C@H]1CCOc1ccc2ncc(-c3cc4ccccc4o3)n2n1` [Example I-56, [(2S)-2-(2-{[3-(1-Benzofuran-2-yl)imidazo[1,2-b]-pyridazin-6-yl]oxy}ethyl)pyrrolidin-1-yl](cyclopentyl)-methanone] are 3.8 nM and 4 nM.
Turning to `O=C(c1ccsc1)N1CCC[C@H]1CCOc1ccc2ncc(-c3cc4ccccc4o3)n2n1` [Example I-57, [(2S)-2-(2-{[3-(1-Benzofuran-2-yl)imidazo[1,2-b]-pyridazin-6-yl]oxy}ethyl)pyrrolidin-1-yl](thiophen-3-yl)methanone], the IC50 on MKNK1 [1] came out at 3.9 nM; against MKNK1 [2] it was 1.9 nM.
As to `COCC(=O)N1CCC[C@H]1CCOc1ccc2ncc(-c3cc4ccccc4o3)n2n1` [Example I-58, 1-[(2S)-2-(2-{[3-(1-Benzofuran-2-yl)imidazo[1,2-b]-pyridazin-6-yl]oxy}ethyl)pyrrolidin-1-yl]-2-methoxyethanone], the IC50 on MKNK1 [1] is 5.2 nM; against MKNK1 [2], 2.6 nM.
As to `O=C(CO)N1CCC[C@H]1CCOc1ccc2ncc(-c3cc4ccccc4o3)n2n1` [Example I-59, 1-[(2S)-2-(2-{[3-(1-Benzofuran-2-yl)imidazo[1,2-b]-pyridazin-6-yl]oxy}ethyl)pyrrolidin-1-yl]-2-hydroxyethanone], the IC50 against MKNK1 [1] stood at 5.3 nM; on MKNK1 [2], 2.8 nM.
Turning to `CC(C)CC(=O)N1CCC[C@H]1CCOc1ccc2ncc(-c3cc4ccccc4o3)n2n1` [Example I-60, 1-[(2S)-2-(2-{[3-(1-Benzofuran-2-yl)imidazo[1,2-b]-pyridazin-6-yl]oxy}ethyl)pyrrolidin-1-yl]-3-methylbutan-1-one], the IC50 is 5.4 nM at MKNK1 [1] and 2.2 nM against MKNK1 [2].
For `O=C(c1ccc[nH]1)N1CCC[C@H]1CCOc1ccc2ncc(-c3cc4ccccc4o3)n2n1` [Example I-61, [(2S)-2-(2-{[3-(1-Benzofuran-2-yl)imidazo[1,2-b]-pyridazin-6-yl]oxy}ethyl)pyrrolidin-1-yl](1H-pyrrol-2-yl)methanone], the IC50 against MKNK1 [1] came out at 6.7 nM; against MKNK1 [2] it was 2.9 nM.
With `O=C(c1ccccn1)N1CCC[C@H]1CCOc1ccc2ncc(-c3cc4ccccc4o3)n2n1` [Example I-62, [(2S)-2-(2-{[3-(1-Benzofuran-2-yl)imidazo[1,2-b]-pyridazin-6-yl]oxy}ethyl)pyrrolidin-1-yl](pyridin-2-yl)methanone], the IC50 against MKNK1 [1] came out at 6.8 nM; against MKNK1 [2], 3.5 nM.
`O=C(c1ccc(Cl)cc1)N1CCC[C@H]1CCOc1ccc2ncc(-c3cc4ccccc4o3)n2n1` [Example I-63, [(2S)-2-(2-{[3-(1-Benzofuran-2-yl)imidazo[1,2-b]-pyridazin-6-yl]oxy}ethyl)pyrrolidin-1-yl](4-chlorophenyl)methanone]: the IC50 on MKNK1 [1] worked out at 10.1 nM; on MKNK1 [2], 4 nM.
